We go through 15 compounds from US6541463B1, “Inhibitors of type 5 and type 3 17β-hydroxysteroid dehydrogenase and methods for their use” (Endorecherche, Inc., priority 1998, dated 2003).

Common to all, as to assay type: biochemical
The target of assay [1] is T1, human type 1 17β-hydroxysteroid dehydrogenase (Homo sapiens, UniProt P14061).
T1 construct: expressed in transfected cells; host or cells: 293 cells, transient transfection; 100 000×g supernatant (cytosol)
T1 sequence (P14061 1-328): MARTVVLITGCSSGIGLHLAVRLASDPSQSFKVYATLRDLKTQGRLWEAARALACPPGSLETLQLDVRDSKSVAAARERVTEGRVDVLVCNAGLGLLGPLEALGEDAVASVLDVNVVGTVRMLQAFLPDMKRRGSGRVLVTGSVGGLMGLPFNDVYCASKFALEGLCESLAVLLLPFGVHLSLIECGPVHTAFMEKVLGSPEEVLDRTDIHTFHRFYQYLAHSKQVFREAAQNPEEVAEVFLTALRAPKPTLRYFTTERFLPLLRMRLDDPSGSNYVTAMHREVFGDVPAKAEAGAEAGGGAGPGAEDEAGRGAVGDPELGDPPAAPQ
Put plainly: Enzymatic assay for type 1 17β-HSD. The following applies: for IC50: Table 4′, read-out: Inhibition Type 1 17β-HSD Activity IC50; for inhibition at 3 µM / Inhibition Type 1 17B-HSD Activity [% Inh. at 3 · 10^−6 M]: 3 · 10^−6 M, value in square brackets; for inhibition at 3 µM: read-out: Inhibition Type 1 17B-HSD Activity [% Inh. at 3 · 10^−6 M]. The procedure:
(§1) The manner in which IC50 was determined is described in “Efficacy of Preferred Inhibitors: VI. Enzymatic assay for types 1, 2, and 3 17β-HSD and types 1 and 3 3α-HSD”. […] numbers of IC50 are desirable. Blank means that a determination was not done. The % of inhibition at the concentration of 3.10^−6M determined in preliminary screening test is reported in square braquets.
(§2) Enzyme sources. 293 cells transiently transfected with expression vectors encoding types 1, 2 and 3 17β-HSD (Luu-The et al., J. Steroid Biochem. Molec. Biol., 55: 581-587, 1995), types 1 and 2 5α-reductase (Luu-The et al., J. Invest. Dermatol., 102: 221-226, 1994) and types 1 and 3 3α-HSD (Dufort et al. Biochem. Biophys. Res. Commun. 228: 474-479, 1996), using the calcium phosphate procedure (Kingston et al., In: Current Protocols in Molecular Biology. Edited by E. M. Ausbel, R. Brent, R. E. Kingston, D. D. Moore, J. G. Seidman, J. A. Smith, K. Struhl. John Wiley & Sons, New York, pp. 9.1.1-9.1.9, 1991; Luu-The et al., J. Invest. Dermatol., 102: 221-226, 1994). For assays using cell subfractions, cells were sonicated in 50 mM sodium phosphate buffer (pH 7.4), containing 20% glycerol and 1 mM EDTA and centrifuged at 10 000×g for 30 min before centrifugation for 100 000×g for 1 h to separate the mitochondrial and microsomal fractions, respectively. The cytosol fractions (100 000×g supernatant) was used to determine type 1 activity while the microsomal fraction (pellet at 100 000×g) was used for measurement of types 2 and 3 17β-HSD activities.
(§3) Incubation. The enzymatic reaction was carried out at 37° C. in 1 ml of 50 mM sodium phosphate buffer, pH 7.4, containing 20% glycerol, 1 mM EDTA, and 2 mM cofactors (NADPH or AND^+) for 1 h in the presence of 0.1 μM ^14C-labeled substrate: estrone and 4-dione for types 1 and […] 17β-HSD, respectively, testosterone for type 2 17β-HSD as well as types 1 and 2 5α-reductases, DHT for types 1 and 3 3α-HSD activities, and the indicated concentration of inhibitor.
(§4) Extraction of metabolites, migration on TLC and quantification were as described above for the assay of type 5 17β-HSD.

The target in assay [2] is T2, human type 1 3α-hydroxysteroid dehydrogenase (Homo sapiens, UniProt P17516).
T2 sequence (P17516 1-323): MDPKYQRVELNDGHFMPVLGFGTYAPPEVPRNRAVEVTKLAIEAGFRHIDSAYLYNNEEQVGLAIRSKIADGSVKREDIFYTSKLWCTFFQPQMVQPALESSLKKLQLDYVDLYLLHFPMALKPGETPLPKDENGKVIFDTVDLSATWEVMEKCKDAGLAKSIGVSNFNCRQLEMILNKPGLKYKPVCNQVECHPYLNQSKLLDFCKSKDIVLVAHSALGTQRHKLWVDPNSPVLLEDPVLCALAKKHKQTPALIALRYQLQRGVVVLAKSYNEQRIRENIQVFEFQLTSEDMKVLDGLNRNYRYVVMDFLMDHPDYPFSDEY
Put plainly: Enzymatic assay for type 1 3α-HSD. As to conditions: Table 4′; for IC50: read-out: Inhibition Type 1 3α-HSD Activity IC50. The procedure: The manner in which IC50 was determined is described in “Efficacy of Preferred Inhibitors: VI. Enzymatic assay for types 1, 2, and 3 17β-HSD and types 1 and 3 3α-HSD”. […] numbers of IC50 are desirable. Blank means that a determination was not done. […]
as §2, §3, §4

In assay [3] the target is T3, human type 3 17β-hydroxysteroid dehydrogenase (Homo sapiens, UniProt P37058).
T3 construct: expressed in transfected cells; host or cells: 293 cells, transient transfection; microsomal fraction (100 000×g pellet)
T3 sequence (P37058 1-310): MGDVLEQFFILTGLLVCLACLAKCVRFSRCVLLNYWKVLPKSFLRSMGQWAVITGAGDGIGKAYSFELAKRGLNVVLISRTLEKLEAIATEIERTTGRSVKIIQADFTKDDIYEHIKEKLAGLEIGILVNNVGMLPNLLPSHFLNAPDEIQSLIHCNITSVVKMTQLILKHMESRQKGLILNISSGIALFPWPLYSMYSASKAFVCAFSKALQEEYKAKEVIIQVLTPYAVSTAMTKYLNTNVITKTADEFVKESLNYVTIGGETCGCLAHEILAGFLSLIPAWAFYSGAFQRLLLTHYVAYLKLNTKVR
Briefly: Enzymatic assay for type 3 17β-HSD. As to conditions: for IC50: Table 4′, read-out: Inhibition Type 3 17β-HSD Activity IC50.
From the text: Enzymatic assay for types 1, 2, and 3 17β-HSD and types 1 and 3 3α-HSD”. Lower numbers of IC50 are desirable. Blank means that a determination was not done. The % of inhibition at the concentration of 3.10^−6M determined in preliminary screening test is reported in square braquets.
as §2, §3, §4

In assay [4] the target is T4, human type 3 3α-hydroxysteroid dehydrogenase (Homo sapiens, UniProt P52895).
T4 construct: expressed in transfected cells; host or cells: 293 cells, transient transfection
T4 sequence (P52895 1-323): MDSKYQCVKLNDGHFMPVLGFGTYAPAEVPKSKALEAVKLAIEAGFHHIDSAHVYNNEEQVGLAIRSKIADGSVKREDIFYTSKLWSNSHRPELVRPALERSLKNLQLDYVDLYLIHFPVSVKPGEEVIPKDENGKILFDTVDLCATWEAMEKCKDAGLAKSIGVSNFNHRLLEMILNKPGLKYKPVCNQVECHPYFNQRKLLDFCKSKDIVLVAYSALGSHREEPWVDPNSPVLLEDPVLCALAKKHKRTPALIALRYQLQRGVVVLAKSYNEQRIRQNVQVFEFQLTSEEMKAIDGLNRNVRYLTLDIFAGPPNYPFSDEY
Put plainly: Enzymatic assay for type 3 3α-HSD. As to conditions: Table 4′; read-out: Inhibition Type 3 3α-HSD Activity IC50. The procedure: as §1, §2, §3, §4

Each structure is given as a SMILES string.

For `COc1ccc2c(c1)C(=O)CC1C2CC[C@@]2(C)C1CC[C@@]21CCC(C)(C)C(=O)O1` (stereo partly shown) [EM-1394], the IC50 in assay [1], in assay [2], in assay [3] and in assay [4] was greater than 10 µM each time.

As to `COCCOc1cc2c(cc1C#N)C1CC[C@@]3(C)C(CC[C@@]34CCC(C)(C)C(=O)O4)C1CC2` (stereo partly shown) [EM-1396], the IC50 in assay [1], in assay [2], in assay [3] and in assay [4] was greater than 10 µM throughout.

For `CC1(C)CCC2(CCC3C4CCc5cc(OS(C)(=O)=O)ccc5C4CCC32C)OC1=O` (stereo not shown) [EM-1365-CS], the IC50 in assay [1], in assay [2], in assay [3] and in assay [4] was greater than 10 µM in each case.

Turning to `CCC[C@]1(F)CC2C3C=CC4=CC(=O)CC[C@]4(C)C3CC[C@]2(C)C1=O` (stereo partly shown) [EM-1183], the inhibition – broadly, the change of the read-out against control, counted positive when it falls – at 3 µM in assay [1] turned out to be 34%.

Consider `CC1(C)CC[C@@]2(CCC3C4CCc5cc(F)ccc5C4CC[C@@]32C)OC1=O` (stereo partly shown) [EM-1157-CS], for which the IC50 in assay [1], in assay [2], in assay [3] and in assay [4] was greater than 10 µM each time.

Turning to `COCCOc1cc2c(cc1C(=O)OC)C1CC[C@@]3(C)C(CC[C@@]34CCC(C)(C)C(=O)O4)C1CC2` (stereo partly drawn) [EM-1402-CS, 2-Carbomethoxy-3-(2″-methoxyethyloxy)-1,3,5(10)-estratrien 17(R)-spiro-2′-(5′,5′-dimethyl-6′-oxo)tetrahydropyran], the IC50 in assay [1], in assay [2], in assay [3] and in assay [4] was greater than 10 µM each time.

Consider `C[C@]12CCC(=O)C=C1C=C[C@@H]1[C@@H]2CC[C@]2(C)C(=O)C3(CC4CC4C3)C[C@@H]12` (stereo partly shown) [EM-1299, 4,6-Androstadien-3,17-dione-16-spirobicyclo[3′.1′.0′]-hexane], for which the “Inhibition Type 1 17B-HSD Activity [% Inh. at 3 · 10^−6 M]” value in assay [1] was “[49] %”.

Regarding `CC1=C[C@@H]2[C@H](CC[C@]3(C)C(=O)C4(CCCCC4)C[C@@H]23)[C@@]2(C)CCC(=O)C=C12` [EM-925], the “Inhibition Type 1 17B-HSD Activity [% Inh. at 3 · 10^−6 M]” value in assay [1] is “[13] %”.

`CC1(C)CC[C@@]2(CCC3C4CCc5cc(C(=O)O)ccc5C4CC[C@@]32C)OC1=O` (stereo partly drawn) [EM-1401, 3-Carboxy-1,3,5(10)-estratrien-17(R)-spiro-2′-(5′,5′-dimethyl-6′-oxo)tetrahydropyran]: the IC50 in assay [1], in assay [3] and in assay [4] was greater than 10 µM throughout. Also, in assay [2] (bracketed value, 3 · 10^−6 M), the “Inhibition Type 1 3α-HSD Activity [% Inh. at 3 · 10^8M]” value was “[76] %”.

For the compound `CCCC(=O)O[C@]1(C)C(=O)CCC2C3C=C(C)C4=CC(=O)CC[C@]4(C)C3CC[C@@]21C` (stereo partly shown) [EM-1078], in assay [1], the inhibition at 3 µM was found to be 15%.

Take `CC(C)C[C@@H]1CC2C3C=CC4=CC(=O)CC[C@]4(C)C3CC[C@]2(C)C1=O` (stereo partly shown) [EM-1273-CS]: the inhibition at 3 µM in assay [1] was found to be 31%.

`CCC[C@@H]1CC2C3C=CC4=CC(=O)CC[C@]4(C)C3CC[C@]2(C)C1=O` (stereo partly shown) [EM-1097]: the inhibition at 3 µM in assay [1] amounted to 64%; in assay [3] (3 · 10^−6 M, value in square brackets, read-out: Inhibition Type 3 17B-HSD Activity [% Inh. at 3 · 10^−6 M]), 82%.

Consider `CC1(C)CC[C@@]2(CCC3C4CCc5cc(C(N)=O)ccc5C4CCC32C)OC1=O` (stereo partly shown) [EM-1404], for which the IC50 in assay [1], in assay [2], in assay [3] and in assay [4] was greater than 10 µM in each case.

Consider `CC12C=CC(=O)C=C1C=CC1C2CCC2(C)C(=O)C3(CCCCC3)CC12` (stereo not shown) [CS-204], for which the inhibition at 3 µM in assay [1] was found to be 23%.

Turning to `COCCOc1cc2c(cc1C(N)=O)C1CC[C@@]3(C)C(CC[C@@]34CCC(C)(C)C(=O)O4)C1CC2` (stereo partly drawn) [EM-1424, 2-Carbamoyl-3-(2″-methoxyethyloxy)-1,3,5(10)-estratrien 17(R)-spiro-2′-(5′,5′-dimethyl-6′-oxo)tetrahydropyran], the 50% inhibitory concentration (IC50) in assay [1], in assay [2], in assay [3] and in assay [4] was greater than 10 µM throughout.
